Laboratory results from patent US20250230193A1, “CYCLIC COMPOUND HAVING SELECTIVE KRAS INHIBITORY EFFECT ON HRAS AND NRAS” (CHUGAI SEIYAKU KABUSHIKI KAISHA, priority 2022, published 2025).
*1 amine or outer side, *2 acyl side, *3 side chain or, on linkers, in order; H or OH if unused. Where a SMILES comes first, the peptide text is derived from it. Bridges are numbered along the chain shown (N, C = ends). [ ]: non-standard residue; d: D form. The star is where a group is joined. hPhe(3-Cl-4-CF3) = N[C@@H](CCc1ccc(C(F)(F)F)c(Cl)c1)C(=O)O; NPrPhe(4-CF3) = CCCN[C@@H](Cc1ccc(C(F)(F)F)cc1)C(=O)O; X33 = CCCN([C@@H](CC(C)C)C(=O)[*:2])[*:1]; NMeGly(cPent) = CN[C@H](C(=O)O)C1CCCC1; NMeD = CN[C@@H](CC(=O)O)C(=O)O; Morpholide = C1CN(*)CCO1; Ac4c = NC1(C(=O)O)CCC1; Sar = CNCC(=O)O

Legend:
[1] = biological target: GDP-bound NRAS wild-type protein (Homo sapiens, UniProt P01111); assay: Binding to NRAS by surface plasmon resonance (SPR), Single Cycle Kinetics
Chain of GDP-bound NRAS wild-type protein (P01111 whole entry): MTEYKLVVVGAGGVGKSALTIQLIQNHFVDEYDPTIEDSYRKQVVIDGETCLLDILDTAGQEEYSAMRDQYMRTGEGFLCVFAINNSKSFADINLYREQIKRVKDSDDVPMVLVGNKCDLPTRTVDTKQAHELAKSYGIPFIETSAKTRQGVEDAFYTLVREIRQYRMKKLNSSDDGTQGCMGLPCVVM

[2] = biological target: GDP-bound HRAS wild-type protein (Homo sapiens, UniProt P01112); assay: Binding to HRAS by surface plasmon resonance (SPR), Single Cycle Kinetics
Chain of GDP-bound HRAS wild-type protein (P01112 whole entry): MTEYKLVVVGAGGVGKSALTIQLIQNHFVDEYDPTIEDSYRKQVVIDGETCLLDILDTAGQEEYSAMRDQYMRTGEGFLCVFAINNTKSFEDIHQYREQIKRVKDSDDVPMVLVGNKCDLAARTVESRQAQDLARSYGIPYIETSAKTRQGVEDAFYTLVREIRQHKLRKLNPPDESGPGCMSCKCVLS

[3] = KD ratio, GDP-bound NRAS wild-type vs GDP-bound KRAS wild-type, SPR
[4] = KD ratio, GDP-bound HRAS wild-type vs GDP-bound KRAS wild-type, SPR
[5] = SPR, GDP-bound wild-type proteins

CCO[C@@H]1C[C@H]2C(=O)NC3(CCC3)C(=O)N(C)[C@@H](C3CCCC3)C(=O)N(C)[C@H](C(=O)N(C)CC)CC(=O)N(C)[C@@H](CC3CCC3)C(=O)N[C@@H]([C@@H](C)CC)C(=O)N(C)CC(=O)N(C)[C@H]3C/C=C\CCN(C3=O)[C@@H](Cc3ccc(C(F)(F)F)cc3)C(=O)N(C)CC(=O)N[C@@H](CCc3ccc(Cl)c(Cl)c3)C(=O)N2C1 [PP2824]
NRAS/KRAS (ratio of KD value with respect to GDP-bound NRAS wild-type protein to KD value with respect to KRAS) ([1]; class symbols): A (a compound having 10 or more and less than 20 is denoted as A)
HRAS/KRAS (ratio of KD value with respect to GDP-bound HRAS wild-type protein to KD value with respect to KRAS) ([2]; class symbols): A (a compound having 10 or more and less than 20 is denoted as A)

CCO[C@@H]1C[C@H]2C(=O)NC3(CCC3)C(=O)N(C)[C@@H](C3CCCC3)C(=O)N3CCC[C@@H]3CC(=O)N(C)[C@@H](CC)C(=O)N[C@@H]([C@@H](C)CC)C(=O)N(C)CC(=O)N(C)[C@H]3C/C=C\CCN(C3=O)[C@@H](Cc3ccc(C(F)(F)F)cc3)C(=O)N(C)CC(=O)N[C@@H](CCc3cc(F)c(C(F)(F)F)c(F)c3)C(=O)N2C1 [PP1097]
NRAS/KRAS (ratio of KD value with respect to NRAS to KD value with respect to KRAS) [1, 3]: B (a compound having 3 or more and less than 10 is denoted as B)
HRAS/KRAS (ratio of KD value with respect to HRAS to KD value with respect to KRAS) [2, 4]: B (a compound having 3 or more and less than 10 is denoted as B)

CCCO[C@@H]1C[C@H]2C(=O)NC3(CC(C)(C)C3)C(=O)N(C)[C@@H](C3CCCC3)C(=O)N(C)[C@H](C(=O)N3CCCCC3)CC(=O)N(C)[C@H]3CCCc4ccc(cc4)C[C@@H](C(=O)N(C)CC(=O)N[C@@H](CCc4ccc(C(F)(F)F)c(OC)c4)C(=O)N2C1)N1CC/C=C\C[C@@H](C1=O)N(C)C(=O)CN(C)C(=O)[C@H]([C@@H](C)CC)NC3=O [PP3064]
NRAS/KRAS (ratio of KD value with respect to GDP-bound NRAS wild-type protein to KD value with respect to KRAS) [1, 5]: B (a compound having 3 or more and less than 10 is denoted as B)
HRAS/KRAS (ratio of KD value with respect to GDP-bound HRAS wild-type protein to KD value with respect to KRAS) [2, 5]: B (a compound having 3 or more and less than 10 is denoted as B)

CCC[C@@H]1C[C@H]2C(=O)NC3(CC(C)(C)C3)C(=O)N(C)[C@@H](C3CCCC3)C(=O)N(C)[C@H](C(=O)N(C)C)CC(=O)N(C)[C@@H](CCC)C(=O)N[C@@H]([C@@H](C)CC)C(=O)N(C)CC(=O)N(C)[C@H]3C/C=C\CCN(C3=O)[C@@H](Cc3ccc(C)cc3)C(=O)N(C)CC(=O)N[C@@H](CCc3ccc(C(F)(F)F)c(Cl)c3)C(=O)N2C1 [PP2214]
NRAS/KRAS (ratio of KD value with respect to NRAS to KD value with respect to KRAS) ([1]; SPR, GDP-bound NRAS wild-type vs GDP-bound KRAS wild-type): A (a compound having 10 or more and less than 20 is denoted as A)
HRAS/KRAS (ratio of KD value with respect to HRAS to KD value with respect to KRAS) ([2]; SPR, GDP-bound HRAS wild-type vs GDP-bound KRAS wild-type): A (a compound having 10 or more and less than 20 is denoted as A)

CCCN1C(=O)C[C@@H](C(=O)N2CCOCC2)N(C)C(=O)[C@H](C2CCCC2)N(C)C(=O)C2(CCC2)NC(=O)[C@@H]2CCCN2C(=O)[C@H](CCc2ccc(C(F)(F)F)c(Cl)c2)NC(=O)CN(C)C(=O)[C@H](Cc2ccc(C(F)(F)F)cc2)N(CCC)C(=O)CN(C)C(=O)CN(C)C(=O)[C@H](C(C)C)NC(=O)[C@@H]1CC(C)C [PP1815] ([X33]V[Sar][Sar][NPrPhe(4-CF3)][Sar][hPhe(3-Cl-4-CF3)]P[Ac4c][NMeGly(cPent)][NMeD]-Morpholide; lactam N-11)
NRAS/KRAS (ratio of KD value for NRAS to KD value for KRAS) [1, 3]: B (a compound having 3 or more and less than 10 is denoted as B)
HRAS/KRAS (ratio of KD value for HRAS to KD value for KRAS) [2, 4]: B (a compound having 3 or more and less than 10 is denoted as B)

CCO[C@@H]1C[C@H]2C(=O)NC3(CCC3)C(=O)N(C)[C@@H](C3CCCC3)C(=O)N(C)[C@H](C(=O)N(C)C)CC(=O)N(C)[C@@H](CC)C(=O)N[C@@H]([C@@H](C)CC)C(=O)N(C)CC(=O)N(C)[C@H]3CCCCCN(C3=O)[C@@H](Cc3nccs3)C(=O)N(C)CC(=O)N[C@@H](CCc3cc(F)c(C(F)(F)F)c(F)c3)C(=O)N2C1 [PP0913]
NRAS/KRAS (ratio of KD value with respect to NRAS to KD value with respect to KRAS) [1, 3]: B (a compound having 3 or more and less than 10 is denoted as B)
HRAS/KRAS (ratio of KD value with respect to HRAS to KD value with respect to KRAS) [2, 4]: B (a compound having 3 or more and less than 10 is denoted as B)

CCO[C@@H]1C[C@H]2C(=O)NC3(CC(C)(C)C3)C(=O)N(C)[C@@H](C(CC)CC)C(=O)N(C)[C@H](C(=O)N(C)C)CC(=O)N(C)[C@H]3CC/C=C/c4ccc(cc4)C[C@@H](C(=O)N(C)CC(=O)N[C@@H](CCc4cc(F)c(C(F)(F)F)c(F)c4)C(=O)N2C1)N1CC/C=C\C[C@@H](C1=O)N(C)C(=O)CN(C)C(=O)[C@H]([C@@H](C)CC)NC3=O [PP2586]
NRAS/KRAS (ratio of KD value with respect to GDP-bound NRAS wild-type protein to KD value with respect to KRAS) ([1]; class symbols): A (a compound having 10 or more and less than 20 is denoted as A)
HRAS/KRAS (ratio of KD value with respect to GDP-bound HRAS wild-type protein to KD value with respect to KRAS) ([2]; class symbols): B (a compound having 3 or more and less than 10 is denoted as B)

CC[C@H](C)[C@@H]1NC(=O)[C@H](CC(C)C)N(C)C(=O)C[C@@H](C(=O)N2CCOCC2)N(C)C(=O)[C@H](C2CCCC2)N(C)C(=O)C2(CCCC2)NC(=O)[C@@H]2CCCN2C(=O)[C@H](CCc2ccc(C(F)(F)F)c(Cl)c2)NC(=O)CN(C)C(=O)[C@H](Cc2ccc(C)cc2)N2CC=CC[C@@H](C2=O)N(C)C(=O)CN(C)C1=O [PP0460]
NRAS/KRAS (ratio of KD value with respect to GDP-bound NRAS wild-type protein to KD value with respect to KRAS) ([1]; SPR): C (A compound having a KD ratio of 0.1 or more and less than 3 is denoted as C)
HRAS/KRAS (ratio of KD value with respect to GDP-bound HRAS wild-type protein to KD value with respect to KRAS) ([2]; SPR): C (A compound having a KD ratio of 0.1 or more and less than 3 is denoted as C)
